Experimental data taken from patent US5994366A, “Tetrahydroimidazo[2,1-A]isoquinoline derivatives” (Akzo Nobel NV, priority 1997, dated 1999).
Counter-ions that a name gives are not always drawn.

What was measured:
Type in all cases: biochemical
Details in all cases: in vitro
[1] = target: dopamine reuptake; assay: dopamine (DUP) reuptake blockade
Method: (§1) Measurement of dopamine (DUP), serotonin (SUP) and noradrenaline NUP) reuptake blockade was carried out using the methods described in Neuropharmacology Vol. 27, No. 3, pp. 251-260, 1988 and results are presented in Table 1 below.

[2] = target: serotonin reuptake; assay: serotonin (SUP) reuptake blockade
Method: as §1

[3] = target: noradrenaline reuptake; assay: noradrenaline (NUP) reuptake blockade
Method: as §1

Compound | DUP (pKi) [1] | SUP (pKi) [2] | NUP (pKi) [3]
Cl.Clc1ccc(C2CN3CCN=C3c3ccccc32)cc1 (racemic) [Example 2a, (rac)6-(4-chlorophenyl)-2,3,5,6-tetrahydroimidazo[2,1-a]isoquinoline hydrochloride] | 7.15 | 7.4 | 7.9
Fc1ccc(C2CN3CCN=C3c3ccccc32)cc1 (racemic) [Example 2b, (rac)-6-(4-Fluorophenyl)-2,3,5,6-tetrahydroimidazo[2,1-a]isoquinoline] | 6.5 | 7.5 | 7.65
Cc1ccc(C2CN3CCN=C3c3ccccc32)cc1 (racemic) [Example 2c, (rac)-2,3,5,6-Tetrahydro-6-(4-methylphenyl)imidazo[2,1-a]isoguinoline (Z)-2-butenedioate (1:1) salt] | 7.05 | 6.9 | 7.75
Clc1ccc(C2CN3CCN=C3c3ccccc32)cc1 (single isomer, unassigned; (+)) [Example 4, (+)-6-(4-Chlorophenyl)-2,3,5,6-tetrahydroimidazo[2,1-a]isoquinoline (E)-2-butenedioate (1:1) salt] | 7.2 | 7.0 | 8.15
Fc1ccc(C2CN3CCN=C3c3ccccc32)cc1 (single isomer, unassigned; (+)) [Example 7, (+)-6-(4-Fluorophenyl)-2,3,5,6-tetrahydroimidazo[2,1-a]isoquinoline (E)-2-butenedioate (1:1) salt] | 6.45 | 6.25 | 7.75
Clc1ccc(C2CN3CCN=C3c3ccccc32)cc1 (single isomer, unassigned; (-)) [Example 3, (-)-6-(4-chlorophenyl)-2,3,5,6-tetrahydroimidazo[2,1-a]isoquinoline (E)-2-butenedioate (1:1) salt] | 7.15 | 7.3 | 8.1
Fc1ccc(C2CN3CCN=C3c3ccccc32)cc1 (single isomer, unassigned; (-)) [Example 6, (-)-6-(4-fluorophenyl)-2,3,5,6-tetrahydroimidazo[2,1-a]isoquinoline (E)-2-butenedioate (1:1) salt] | 6.6 | 7.9 | 7.5
